# “Also recorded” adds a separate entry of the source.
# Key:
# [1] = test system: spontaneously hypertensive rats; assay: Effect on arterial pressure in spontaneously hypertensive rats, single administration; assay type: in vivo; conditions: for hypotensive effect by the 6th hour, comparison in words: compound of the present invention vs Nifedipine
# white nondescript mice = assay: in vivo; conditions: for toxicity in words: conclusion from Table 2
# Procedure: (§1) The mean lethal dose (LD50) was determined by the Litchfield and Wilcoxon method.
# in vivo = conditions: mouse, in vivo, ip
# Procedure: as §1
# [2] = test system: spontaneously hypertensive rats; assay: Effect on heart rate in spontaneously hypertensive rats; assay type: in vivo; conditions: for effect on heart rate: 10 and 20 mg/kg, peroral, SHR
# Procedure: (§2) In experiments on spontaneously hypertensive rats the compound according to the present invention upon a single administration (10 mg/kg in stomach) caused reduction of systolic arterial pressure. The maximum hypotensive effect (by 21 %) was observed by the 6-th hour after administration of the compound, after 24 hours the pressure was reduced by 17 % as compared to the initial value. A […] administration of the compound for 5 days in the dose of 10 mg/kg into the stomach caused the maximum reduction of the pressure (by 22 %) on the 6-th day, i.e., one day after discontinuation of administration of the compound. A reduced pressure was observed on the 3-rd day (by 10 %) after discontinuation of the administration.
# [3] = test system: spontaneously hypertensive rats; assay: Effect on systolic arterial pressure in spontaneously hypertensive rats, administration for 5 days; assay type: in vivo; conditions: 10 mg/kg into the stomach for 5 days
# Procedure: as §2
# [4] = Stability by UV spectrum (solid in the light; alcoholic solution)
# Solubility = assay type: physicochemical
# [5] = literature, cited from earlier work
# [6] = 10 mg/kg, single administration in stomach
smiles,measurement,setting,value
"COC(=O)C1=C(C)NC(C)=C(C(=O)OC)C1c1ccc([Si](C)(C)C)o1 [Of this invention, 2,6-dimethyl-3,5-dimethoxycarbonyl-4-(5'-trimethylsilyl-2'-furyl)-1,4-dihydropyridine]","Hypotensive effect, %, after 1 hr",[1]; [6],13%
same,"Hypotensive effect, %, after 6 hrs",[1]; [6],21%
same,"Hypotensive effect, %, after 24 hrs",[1]; [6],17%
same,"Hypotensive effect, %, after 6 hrs",[1]; 20 mg/kg,30%
same,"Hypotensive effect, %, after 24 hrs",[1]; 20 mg/kg,39%
same,"Hypotensive effect, %, after 48 hrs",[1]; 20 mg/kg,28%
same,"hypotensive effect by the 6th hour, comparison in words",[1],same hypotensive effect
same,"hypotensive effect / systolic pressure 24 hours after administration, in words",[1],still produced the hypotensive effect
same,"duration of hypotensive effect, in words","[1]; vs Nifedipine and/or analog, listed as compound according to the present invention",superior over Nifedipine as regards the duration of its effect; also recorded: more lasting hypotensive effect than the analog and Nifedipine
same,toxicity in words,white nondescript mice,low toxicity as compared to Nifedipine
same,death of the mice,"white nondescript mice; doses of up to 1,000 mg/kg, intraperitoneal",did not cause death of the mice
same,LD50 at 240 h,in vivo,> 1000 mg/kg
same,effect on heart rate,[2],either lowers the heart rate or does not change it
same,"effect on heart rate, comparison in words",[2]; vs Nifedipine,less pronounced effect on the heart rate
same,reduced pressure on the 3rd day after discontinuation,[3]; 3rd day after discontinuation,10%
same,maximum reduction of the pressure,[3]; on the 6th day (one day after discontinuation),22%
same,period during which UV spectrum remained unchanged in alcoholic solution,"[4]; alcoholic solution, 5×10^-5 mol",6 months
same,stability in the crystalline state and as solutions,[4]; crystalline state and solutions,stable
same,UV spectrum upon storage of the solid in the light,"[4]; solid, in the light, within a year's period",does not change its UV spectrum within a year's period
same,"solubility in methanol, ethanol, chloroform, acetone","Solubility; methanol, ethanol, chloroform, acetone",well soluble
same,solubility in water,Solubility; water,substantially insoluble
"COC(=O)C1=C(C)NC(C)=C(C(=O)OC)C1c1ccco1 [Analog, 2,6-dimethyl-3,5-dimethoxycarbonyl-4-(2'-furyl)-1,4-dihydropyridine]","Hypotensive effect, %, after 48 hrs",[1]; 10 mg/kg,0%
same,"Hypotensive effect, %, after 1 hr",[1]; [6],12%
same,"Hypotensive effect, %, after 6 hrs",[1]; [6],7%
same,"Hypotensive effect, %, after 24 hrs",[1]; [6],0%
same,"hypotensive properties, comparison in words",[1]; vs the compound of the present invention,subtantially lower than those of the compound of the present invention
same,toxicity in words,white nondescript mice,low toxicity
same,LD50 at 240 h,in vivo,2900 mg/kg
same,hypotensive activity compared with Nifedipine,[5]; vs Nifedipine,considerably lower than that of Nifedipine
"COC(=O)C1=C(C)NC(C)=C(C(=O)OC)C1c1ccccc1[N+](=O)[O-] [Nifedipine, 2,6-dimethyl-3,5-dimethoxycarbonyl-4-(O-nitrophenyl)-1,4-dihydropyridine]","Hypotensive effect, %, after 48 hrs",[1]; 10 mg/kg,0%
same,"Hypotensive effect, %, after 1 hr",[1]; [6],34%
same,"Hypotensive effect, %, after 6 hrs",[1]; [6],23%
same,"Hypotensive effect, %, after 24 hrs",[1]; [6],0%
same,"hypotensive effect by the 6th hour, comparison in words",[1],same hypotensive effect
same,"hypotensive effect by the 1st hour, comparison in words","[1]; 1 hour after administration, vs the compound of the present invention",superior to the compound of the present invention
same,"hypotensive effect / systolic pressure 24 hours after administration, in words",[1],systolic pressure returned to the initial level
same,effect on heart rate,[2],tachycardia
same,hypotensive and coronarodilating effects,[5],hypotensive and coronarodilating effects
